Source: patent US20260224688A1, “HELPER LIPIDS FOR NUCLEIC ACID DELIVERY” (SANOFI PASTEUR INC., priority 2023, published 2026)

What was measured:
[1] = mRNA encapsulation efficiency of lipid nanoparticles; assay type: physicochemical; settings: for Encapsulation efficiency (EE): LNP with cationic lipid CL-A
From the text: In embodiments, the lipid nanoparticle encapsulates a nucleic acid, optionally an mRNA encoding a peptide or protein. In embodiments, the lipid nanoparticle encapsulates an mRNA encoding a peptide or protein, optionally for use in a vaccine. In embodiments, the peptide is an antigen. As used herein, the phrase “encapsulation percentage” refers to the fraction of therapeutic agent (e.g. mRNA) that is effectively encapsulated within a liposomal-based vehicle (e.g. a lipid nanoparticle) relative to the initial fraction of therapeutic agent present in the lipid phase. In embodiments, the lipid nanoparticles have an encapsulation percentage for mRNA of at least 50%. In embodiments, the lipid nanoparticles have an encapsulation percentage for mRNA of at least 55%. In embodiments, the lipid nanoparticles have an encapsulation percentage for mRNA of at least 60%. In embodiments, the lipid nanoparticles have an encapsulation percentage for mRNA of at least 65%. In embodiments, the lipid nanoparticles have an encapsulation percentage for mRNA of at least 70%. In embodiments, the lipid nanoparticles have an encapsulation percentage for mRNA of at least 75%. In embodiments, the lipid nanoparticles have an encapsulation percentage for mRNA of at least 80%. In embodiments, the lipid nanoparticles have an encapsulation percentage for mRNA of at least 85%. In embodiments, the lipid nanoparticles have an encapsulation percentage for mRNA of at least 90%. In embodiments, the lipid nanoparticles have an encapsulation percentage for mRNA of at least 95%. In embodiments, the encapsulation percentage is calculated by performing the Ribogreen assay (Invitrogen) with and without the presence of 0.1% Triton-X 100.
The lipid nanoparticles in the examples of the present invention were formulated using Process A of WO 2018/089801 (see, e.g., Example 1 and FIG. 1 of WO 2018/089801). Process A (“A”) relates to a conventional method of encapsulating mRNA by mixing mRNA with a mixture of lipids, without first pre-forming the lipids into lipid nanoparticles. In an exemplary process, an ethanolic solution of a mixture of lipids (cationic lipid, phosphatidylethanolamine, cholesterol, and polyethylene glycol-lipid) at a fixed lipid to mRNA ratio were combined with an aqueous buffered solution of target mRNA at an acidic pH under controlled conditions to yield a suspension of uniform LNPs. After ultrafiltration and diafiltration into a suitable diluent system, the resulting nanoparticle suspensions were diluted to final concentration, filtered, and stored frozen at −80° C. until use.
(§1) Lipid nanoparticle formulations 3 were prepared by Process A at a molar ratio of 40:1.5:30:28.5 (Cationic Lipid: DMG-PEG2000: Cholesterol: Helper Lipid) with the cationic lipids and helper lipids disclosed in the tables below. The Polydispersity Index (Pdl) of lipid nanoparticles can be determined by diluting the formulation in 10% trehalose at about 0.1 mg/ml mRNA concentration and then measuring the size on Malvern zetasizer. The lipid nanoparticle size can be obtained with Malvern Zetasizer Nano-ZS.

[2] = Dynamic light scattering of lipid nanoparticles (size, PDI); assay type: physicochemical
Description: as §1
Dynamic light scattering (DLS) measurements were performed using a Malvern Instruments Zetasizer with a backscattering detector angle of 173° and a 4-mW, 633-nm He—Ne laser (Worcestershire, UK). The samples were analyzed by diluting in 10% Trehalose and measuring the size and Poly dispersity Index (PDI) in an optical grade polystyrene cuvette.

[3] = tested on: hEPO; experiment: IV EPO expression of LNPs (tail vein injection); assay type: in vivo, female BALB/cJ mice; settings: cationic lipid CL-0137, helper lipid 30 mol %; 0.017 μg EPO mRNA tail vein; 6 hours; DOPE = 1
Description: Lipid nanoparticles were formulated containing the four lipid components shown below at a ratio of 40:30:28.5:1.5, complexed with a hEPO messenger RNA. • Cationic lipid CL-0137, 40 mol % • Helper lipid, 30 mol % • Cholesterol, 28.5 mol % • DMG-PEG-2K (1,2-dimyristoyl-rac-glycero-3-methoxypolyethyleneglycol), 1.5 mol %
EPO expression studies were conducted with female BALB/cJ mice 6-8 weeks of age. Mice were dosed with 0.017 μg EPO mRNA LNPs in a volume of 5 ul by a single tail vein injection. Blood samples were taken 6 hours post injection and hEPO levels were measured in the blood serum of the mice using an ELISA assay according to the manufacture's protocol.

[4] = tested on: hEPO; experiment: IM EPO expression of LNPs containing new helper lipids (hEPO in serum by ELISA); assay type: in vivo, female BALB/cJ mice; settings: for 6-h EPO: single IM injection; for Normalized Mean EPO expression: helper lipid CL-C formulations, IM, DOPE = 1
Description: Lipid nanoparticles were formulated containing the four lipid components shown below at a ratio of 40:30:28.5:1.5, complexed with a hEPO messenger RNA. • Cationic lipid, 40 mol % • Phospholipid (PEA) helper lipid, 30 mol % • Cholesterol, 28.5 mol % • DMG-PEG-2K (1,2-dimyristoyl-rac-glycero-3-methoxypolyethyleneglycol), 1.5 mol % The cationic lipid component of each formulation was selected from the compounds in the table below: […]
EPO expression studies were conducted with female BALB/cJ mice 6-8 weeks of age. Mice were dosed with […] EPO mRNA in 30 μL of LNPs by a single intramuscular (IM) injection into the gastrocnemius leg muscle. Blood samples were taken 6 and 24 hours post injection and hEPO levels were measured in the blood serum of the mice using an ELISA assay according to the manufacture's protocol. WO2022/099003 A1 also describes an in vivo assay for intramuscular administration (e.g. on page 46, paragraph [00206]).

[5] = LNP with cationic lipid CL-A, hEPO mRNA, 40:30:28.5:1.5
[6] = CL-A LNP, 0.1 μg EPO mRNA in 30 μL, serum 6 hours post injection
[7] = CL-B LNP, serum 6 hours post injection

| Encapsulation efficiency (EE) [1] [%] | EE ([1]; LNP with cationic lipid CL-B) [%] | EE ([1]; LNP with cationic lipid CL-C) [%] | Polydispersity Index (PDI) ([2]; LNP with cationic lipid CL-A) | Size [2, 5] [nm] | PDI ([2]; LNP with cationic lipid CL-B) | Size ([2]; LNP with cationic lipid CL-B) [nm] | PDI ([2]; LNP with cationic lipid CL-C) | Size ([2]; LNP with cationic lipid CL-C) [nm] | EE ([1]; LNP with cationic lipid CL-D) [%] | PDI ([2]; LNP with cationic lipid CL-D) | Size ([2]; LNP with cationic lipid CL-D) [nm] | Structure (SMILES) | Normalized Mean IV EPO expression [3] | 6-h EPO [4, 6] [ng/mL] | 6-h EPO [4, 7] [ng/mL] | 6-h EPO ([4]; CL-C LNP, (6-h)) [ng/mL] | 6-h EPO ([4]; CL-C LNP) [ng/mL] | Normalized Mean EPO expression [4] |
| --- | --- | --- | --- | --- | --- | --- | --- | --- | --- | --- | --- | --- | --- | --- | --- | --- | --- | --- |
| 95 | 94 | 91 | 0.052 | 128 | 0.069 | 108.1 | 0.077 | 102.7 | – | – | – | CCCCCCCCC(CCCCCCCC)OC(=O)CCCCCCCC(=O)OCC(COP(=O)(O)OCCN(C)C)OC(=O)CCCCCCCC(=O)OC(CCCCCCCC)CCCCCCCC (stereo not drawn) [Compound 16, O′^1,O^1-(3-(((2-(Dimethylamino)ethoxy)(hydroxy)phosphoryl)oxy)propane-1,2-diyl) 9-di(heptadecan-9-yl) di(nonanedioate)] | 1.59 | 17.4 | 32.1 | 9.7 | – | – |
| 65 | 25 | 88 | 0.045 | 137 | 0.101 | 116.4 | 0.038 | 111.9 | – | – | – | CCCCCCCCCC(CCCCCCCCC)C(=O)OCC(COP(=O)(O)OCCN)OC(=O)C(CCCCCCCCC)CCCCCCCCC (stereo not drawn) [Compound 3, 3-(((2-Aminoethoxy)(hydroxy)phosphoryl)oxy)propane-1,2-diyl bis(2-nonylundecanoate)] | 3.32 | – | – | 13.4 | 6.3 | – |
| 93 | 89 | 89 | 0.072 | 155 | 0.104 | 117.5 | 0.104 | 117.5 | – | – | – | CCCCCCCCC(CCCCCCCC)C(=O)OCCCCCCC(=O)OCC(COP(=O)(O)OCCN(C)C)OC(=O)CCCCCCOC(=O)C(CCCCCCCC)CCCCCCCC (stereo not drawn) [Compound 18, ((3-(((2-(Dimethylamino)ethoxy)(hydroxy)phosphoryl)oxy)propane-1,2-diyl)bis(oxy))bis(7-oxoheptane-7,1-diyl) bis(2-octyldecanoate)] | 4.68 | 30.1 | 23.7 | 28.8 | – | – |
| – | – | – | – | – | – | – | – | – | – | – | – | CCCCCCCCC(CCCCCCCC)OC(=O)CCCCCCC(=O)OC[C@@H](COP(=O)(O)OCCN(C)CCCO)OC(=O)CCCCCCC(=O)OC(CCCCCCCC)CCCCCCCC [Compound 28, 8-Di(heptadecan-9-yl) O′1,O1-((2S)-3-((hydroxy(2-((3-hydroxypropyl)(methyl)amino)ethoxy)phosphoryl)oxy)propane-1,2-diyl) di(octanedioate)] | – | – | – | – | – | 1.77 |
| 93 | 81 | 60 | 0.071 | 137 | 0.022 | 122.7 | 0.054 | 110.9 | – | – | – | CCCCCCCCC(CCCCCCCC)C(=O)OCCCCCC(=O)OCC(COP(=O)(O)OCCN(C)C)OC(=O)CCCCCOC(=O)C(CCCCCCCC)CCCCCCCC (stereo not drawn) [Compound 17, ((3-(((2-(Dimethylamino)ethoxy)(hydroxy)phosphoryl)oxy)propane-1,2-diyl)bis(oxy))bis(6-oxohexane-6,1-diyl) bis(2-octyldecanoate)] | 4.53 | 16.3 | 14.5 | 31.7 | – | – |
| – | – | – | – | – | – | – | – | – | – | – | – | CCCCCCCCC(CCCCCCCC)OC(=O)CCCCCCC(=O)OC[C@@H](COP(=O)(O)OCCCCCN(C)C)OC(=O)CCCCCCC(=O)OC(CCCCCCCC)CCCCCCCC [Compound 65, O′^1,O^1-((2S)-3-((((5-(Dimethylamino)pentyl)oxy)(hydroxy)phosphoryl)-oxy)propane-1,2-diyl) 8-di(heptadecan-9-yl) di(octanedioate)] | 2.14 | – | – | – | – | 0.825 |
| 94 | 98 | 97 | 0.059 | 153 | 0.108 | 123.9 | 0.129 | 97.0 | – | – | – | CCCCCCCCC(CCCCCCCC)OC(=O)CCCCCCC(=O)OCC(COP(=O)(O)OCCN(C)CCCO)OC(=O)CCCCCCC(=O)OC(CCCCCCCC)CCCCCCCC (stereo not drawn) [Compound 27] | – | 25.6 | 53 | 46.9 | – | – |
| 69 | 37 | 69 | 0.031 | 137 | 0.124 | 97.0 | 0.102 | 88.5 | 78 | 0.064 | 114.3 | CC(C)CCCCOC(=O)CCCCCCC(=O)OCC(COP(=O)(O)OCCN)OC(=O)CCCCCCC(=O)OCCCCC(C)C (stereo not drawn) [Compound 2, O′^1,O^1-(3-(((2-Aminoethoxy)(hydroxy)phosphoryl)oxy)-propane-1,2-diyl) 8-bis(5-methylhexyl) di(octanedioate)] | – | – | – | – | – | – |
| – | – | – | – | – | – | – | – | – | – | – | – | CCCCCCCCC(CCCCCCCC)OC(=O)CCCCCCC(=O)OC[C@@H](COP(=O)(O)OCC[N+](C)(C)CCCO)OC(=O)CCCCCCC(=O)OC(CCCCCCCC)CCCCCCCC [Compound 38, (S)-2,3-Bis((8-(heptadecan-9-yloxy)-8-oxooctanoyl)oxy)propyl (2-((3-hydroxypropyl)dimethylammonio)ethyl) phosphate] | 0.8 | – | – | – | – | – |
| – | – | – | – | – | – | – | – | – | – | – | – | CCCCCCCCC(CCCCCCCC)OC(=O)CCCCCCC(=O)OCC(COP(=O)(O)OCCCN(C)C)OC(=O)CCCCCCC(=O)OC(CCCCCCCC)CCCCCCCC (stereo not drawn) [Compound 60] | 4.61 | – | – | – | – | 1.39 |
